# According to ChEMBL document CHEMBL1136786, “2002 Medicinal Chemistry Division Award address: monoamine transporters and opioid receptors. Targets for addiction therapy” (J Med Chem, 2003):
# Calls of active or inactive are those of the source. No cut-off for these calls is given here.
# Key:
# [1] = biological target: T1, Norepinephrine transporter (Rattus norvegicus, UniProt Q9WTR4); assay: Inhibition of [3H]nisoxetine binding at norepinephrine transporter
# [2] = biological target: Sodium-dependent serotonin transporter (Rattus norvegicus, UniProt P31652); assay: Inhibition of [3H]paroxetine binding at serotonin transporter was determined
# Sodium-dependent serotonin transporter (Rattus norvegicus, UniProt P31652), sequence (P31652 whole entry): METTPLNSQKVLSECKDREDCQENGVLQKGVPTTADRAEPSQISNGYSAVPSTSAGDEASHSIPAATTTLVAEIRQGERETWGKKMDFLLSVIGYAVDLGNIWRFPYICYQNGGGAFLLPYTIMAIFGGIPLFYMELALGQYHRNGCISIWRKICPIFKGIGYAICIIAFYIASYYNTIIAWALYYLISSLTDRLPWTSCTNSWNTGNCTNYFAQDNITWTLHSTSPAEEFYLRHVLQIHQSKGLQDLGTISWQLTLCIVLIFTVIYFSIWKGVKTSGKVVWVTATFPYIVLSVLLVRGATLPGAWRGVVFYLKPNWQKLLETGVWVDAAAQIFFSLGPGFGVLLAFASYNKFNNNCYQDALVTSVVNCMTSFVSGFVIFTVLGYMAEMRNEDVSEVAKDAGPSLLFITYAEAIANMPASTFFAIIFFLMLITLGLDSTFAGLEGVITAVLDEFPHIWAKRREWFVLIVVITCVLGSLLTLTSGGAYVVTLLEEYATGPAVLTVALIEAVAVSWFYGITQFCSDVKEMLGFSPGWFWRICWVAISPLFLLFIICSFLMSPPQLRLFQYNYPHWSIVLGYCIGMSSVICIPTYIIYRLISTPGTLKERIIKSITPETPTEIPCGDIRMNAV
# [3] = biological target: T1, Norepinephrine transporter; assay: Affinity for norepinephrine transporter determined by [3H]nisoxetine displacement.
# [4] = biological target: Sodium-dependent dopamine transporter (Rattus norvegicus, UniProt P23977); assay: Inhibition of [3H]WIN-35428 binding at dopamine transporter was determined
# Sodium-dependent dopamine transporter (Rattus norvegicus, UniProt P23977), sequence (P23977 whole entry): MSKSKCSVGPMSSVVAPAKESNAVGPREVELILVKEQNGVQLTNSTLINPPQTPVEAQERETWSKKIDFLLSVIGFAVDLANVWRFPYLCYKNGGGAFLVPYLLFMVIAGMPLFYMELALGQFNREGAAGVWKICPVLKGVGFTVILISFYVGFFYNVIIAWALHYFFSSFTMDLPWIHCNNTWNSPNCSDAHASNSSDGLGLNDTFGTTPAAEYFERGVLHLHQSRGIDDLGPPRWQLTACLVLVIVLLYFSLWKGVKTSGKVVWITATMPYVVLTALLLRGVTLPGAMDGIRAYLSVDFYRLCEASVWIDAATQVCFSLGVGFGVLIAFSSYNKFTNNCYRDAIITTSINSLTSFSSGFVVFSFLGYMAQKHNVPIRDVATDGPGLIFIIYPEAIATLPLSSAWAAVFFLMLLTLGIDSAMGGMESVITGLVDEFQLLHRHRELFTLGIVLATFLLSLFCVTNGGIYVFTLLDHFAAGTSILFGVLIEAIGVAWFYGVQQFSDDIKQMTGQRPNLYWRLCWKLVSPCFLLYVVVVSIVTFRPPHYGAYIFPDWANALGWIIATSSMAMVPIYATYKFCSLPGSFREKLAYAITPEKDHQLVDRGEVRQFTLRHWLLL
# [5] = biological target: Sodium-dependent serotonin transporter (Homo sapiens, UniProt P31645); assay: Inhibition of Serotonin (5-HT) reuptake using cloned human transporter was determined
# Sodium-dependent serotonin transporter (Homo sapiens, UniProt P31645), sequence (P31645 whole entry): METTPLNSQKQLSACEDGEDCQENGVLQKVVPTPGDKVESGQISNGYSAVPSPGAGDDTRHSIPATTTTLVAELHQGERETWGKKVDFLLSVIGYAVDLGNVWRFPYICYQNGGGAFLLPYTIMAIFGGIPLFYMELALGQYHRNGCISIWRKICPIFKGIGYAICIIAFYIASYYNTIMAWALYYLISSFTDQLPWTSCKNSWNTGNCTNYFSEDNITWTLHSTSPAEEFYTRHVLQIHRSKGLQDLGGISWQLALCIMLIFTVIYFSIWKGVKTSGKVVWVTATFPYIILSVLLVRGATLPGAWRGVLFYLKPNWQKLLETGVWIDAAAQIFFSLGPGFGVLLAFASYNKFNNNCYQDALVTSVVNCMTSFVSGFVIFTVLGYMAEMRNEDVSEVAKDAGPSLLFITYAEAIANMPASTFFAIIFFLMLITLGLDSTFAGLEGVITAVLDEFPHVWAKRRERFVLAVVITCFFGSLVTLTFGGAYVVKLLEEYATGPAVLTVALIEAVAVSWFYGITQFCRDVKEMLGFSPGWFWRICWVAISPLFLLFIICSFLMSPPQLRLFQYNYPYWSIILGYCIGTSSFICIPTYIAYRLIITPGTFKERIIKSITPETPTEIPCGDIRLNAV
# [6] = system: Rattus norvegicus; assay: Time during which activity returned to baseline level in rat by intraperitoneal administration; type: functional
# [7] = system: Rattus norvegicus; assay: Effective dose of compound required to produce maximal locomotor activity in cocaine-trained rat by intraperitoneal administration; type: functional; settings: ip
# [8] = biological target: Sodium-dependent noradrenaline transporter (Homo sapiens, UniProt P23975); assay: Inhibition of Norepinephrine (NA) reuptake using cloned human Norepinephrine transporter was determined
# [9] = biological target: Sodium-dependent dopamine transporter (Homo sapiens, UniProt Q01959); assay: Inhibition of dopamine (DA) reuptake using cloned human dopamine transporter was determined
# Sodium-dependent dopamine transporter (Homo sapiens, UniProt Q01959), sequence (Q01959 whole entry): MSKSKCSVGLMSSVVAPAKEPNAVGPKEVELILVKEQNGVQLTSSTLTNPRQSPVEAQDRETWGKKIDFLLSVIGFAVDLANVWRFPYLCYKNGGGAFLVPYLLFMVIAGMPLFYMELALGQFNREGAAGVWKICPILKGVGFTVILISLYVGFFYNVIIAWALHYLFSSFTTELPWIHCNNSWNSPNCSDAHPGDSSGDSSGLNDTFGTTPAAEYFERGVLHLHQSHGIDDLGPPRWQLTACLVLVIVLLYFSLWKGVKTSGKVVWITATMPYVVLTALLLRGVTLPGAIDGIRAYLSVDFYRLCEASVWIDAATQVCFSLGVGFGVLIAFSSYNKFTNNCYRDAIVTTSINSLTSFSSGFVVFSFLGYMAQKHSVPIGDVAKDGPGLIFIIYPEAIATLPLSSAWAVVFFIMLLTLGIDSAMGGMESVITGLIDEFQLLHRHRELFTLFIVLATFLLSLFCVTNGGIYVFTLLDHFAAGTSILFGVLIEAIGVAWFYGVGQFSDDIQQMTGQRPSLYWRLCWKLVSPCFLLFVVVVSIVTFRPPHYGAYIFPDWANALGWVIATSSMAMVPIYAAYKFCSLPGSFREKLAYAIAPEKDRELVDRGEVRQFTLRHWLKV
# [10] = organism: Mus musculus; assay: Antagonistic activity of nicotine-induced hypothermia in mice was determined; type: functional
# [11] = organism: Mus musculus; assay: Antagonistic activity of nicotine-induced analgesia in mice was determined; type: functional
# [12] = system: Rattus norvegicus; assay: Time taken to produce maximal locomotor activity at 30 min period in rat by intraperitoneal administration; type: functional
# [13] = system: Rattus norvegicus; assay: Effective dose of compound required to produce maximal locomotor activity in rat by intraperitoneal administration; type: functional; settings: ip
# [14] = system: Rattus norvegicus; assay: Maximal locomotor activity of compound compared as a percent of cocaine's effect in rat by intraperitoneal administration; type: functional
# [15] = biological target: Mu-type opioid receptor (Cavia porcellus, UniProt P97266); assay: Inhibition of binding of [3H]DAMGO to Opioid receptor mu 1 in guinea pig membranes; type: cell membranes
# Mu-type opioid receptor, sequence (P97266 whole entry): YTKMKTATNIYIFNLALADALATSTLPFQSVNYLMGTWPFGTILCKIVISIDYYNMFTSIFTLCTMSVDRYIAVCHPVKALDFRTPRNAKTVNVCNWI
# [16] = biological target: Kappa-type opioid receptor (Cavia porcellus) (UniProt P41144); assay: Inhibition of [35S]GTP-gamma-S, binding in guines pig caudate stimulated by U69, 593 of Opioid receptor kappa 1; type: functional
# Kappa-type opioid receptor (Cavia porcellus), sequence (P41144 whole entry): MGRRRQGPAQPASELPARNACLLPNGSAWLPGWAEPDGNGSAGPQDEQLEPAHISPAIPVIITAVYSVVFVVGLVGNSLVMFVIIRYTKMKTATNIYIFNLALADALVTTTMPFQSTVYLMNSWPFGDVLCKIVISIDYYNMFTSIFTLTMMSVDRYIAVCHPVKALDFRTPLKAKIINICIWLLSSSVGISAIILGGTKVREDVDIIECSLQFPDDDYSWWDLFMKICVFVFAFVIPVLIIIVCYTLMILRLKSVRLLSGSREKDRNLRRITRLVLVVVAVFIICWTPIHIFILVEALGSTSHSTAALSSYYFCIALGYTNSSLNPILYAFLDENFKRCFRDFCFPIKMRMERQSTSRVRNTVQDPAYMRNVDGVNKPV
# [17] = biological target: Mu-type opioid receptor (Cavia porcellus) (UniProt P97266); assay: Inhibition of [35S]GTP-gamma-S, binding in guines pig caudate stimulated by DAMGO for Opioid receptor mu 1; type: functional
# Mu-type opioid receptor (Cavia porcellus), sequence (P97266 whole entry): as the sequence (P97266 whole entry) above
# [18] = biological target: D(2) dopamine receptor (Rattus norvegicus) (UniProt P61169); settings: Nucleus accumbens
# D(2) dopamine receptor (Rattus norvegicus), sequence (P61169 whole entry): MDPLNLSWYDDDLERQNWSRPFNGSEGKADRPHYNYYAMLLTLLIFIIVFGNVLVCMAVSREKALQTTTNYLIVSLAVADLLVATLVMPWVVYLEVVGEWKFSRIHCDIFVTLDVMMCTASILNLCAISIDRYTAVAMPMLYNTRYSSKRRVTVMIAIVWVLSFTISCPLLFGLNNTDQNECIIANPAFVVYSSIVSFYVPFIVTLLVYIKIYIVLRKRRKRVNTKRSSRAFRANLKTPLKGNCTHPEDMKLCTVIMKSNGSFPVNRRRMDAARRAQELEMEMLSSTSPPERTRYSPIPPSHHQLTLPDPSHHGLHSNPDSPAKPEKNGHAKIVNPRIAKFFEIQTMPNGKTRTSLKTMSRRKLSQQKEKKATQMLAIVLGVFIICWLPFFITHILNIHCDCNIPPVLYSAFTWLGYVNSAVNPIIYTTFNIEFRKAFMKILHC
# [19] = biological target: D(2) dopamine receptor (Rattus norvegicus) (UniProt P61169)
# [20] = biological target: Mu-type opioid receptor (Cavia porcellus) (UniProt P97266)
# Description: Inhibition of [35S]GTP-gamma-S, binding in cloned Opioid receptor mu 1 stimulated by DAMGO
# [21] = biological target: Delta-type opioid receptor (Homo sapiens) (UniProt P41143); settings: Cavia porcellus
# Delta-type opioid receptor (Homo sapiens), sequence (P41143 whole entry): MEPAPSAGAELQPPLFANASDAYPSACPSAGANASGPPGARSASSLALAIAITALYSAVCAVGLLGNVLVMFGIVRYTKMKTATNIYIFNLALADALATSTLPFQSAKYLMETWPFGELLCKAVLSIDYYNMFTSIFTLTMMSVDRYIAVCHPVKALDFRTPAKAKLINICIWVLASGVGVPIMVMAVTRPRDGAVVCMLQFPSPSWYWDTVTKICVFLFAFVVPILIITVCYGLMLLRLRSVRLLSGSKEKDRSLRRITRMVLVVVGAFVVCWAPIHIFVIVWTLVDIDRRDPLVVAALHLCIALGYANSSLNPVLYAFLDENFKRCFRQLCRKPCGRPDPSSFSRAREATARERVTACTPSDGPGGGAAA
# Description: Inhibition of [35S]GTP-gamma-S, binding in cloned Opioid receptor delta 1 stimulated by SNC-80
# [22] = biological target: Kappa-type opioid receptor (Cavia porcellus) (UniProt P41144)
# Description: Inhibition of [35S]GTP-gamma-S, binding in cloned Opioid receptor kappa 1 stimulated by U50,488
# [23] = system: Rattus norvegicus; assay: Degradation rate constant for dopamine transporter in nucleus accumbens after intraventricular injection of 100 nmol of compound; type: functional
# [24] = system: Rattus norvegicus; assay: Half life of recovery for dopamine transporter in striatum after intraventricular injection of 100 nmol of compound; type: functional, organism-based
# [25] = organism: Rattus norvegicus; type: functional, Cardiac ventricle
# [26] = organism: Rattus norvegicus; type: functional, Striatum
# [27] = system: Rattus norvegicus; assay: Half life of recovery for dopamine transporter in nucleus accumbens after intraventricular injection of 100 nmol of compound; type: functional, organism-based
# [28] = system: Rattus norvegicus; assay: Degradation rate constant for dopamine transporter in striatum after intraventricular injection of 100 nmol of compound; type: functional
# [29] = biological target: Kappa-type opioid receptor (Cavia porcellus) (UniProt P41144); remark: listed apart in the source
# Description: Inhibition of [35S]GTP-gamma-S, binding in cloned Opioid receptor kappa 1 stimulated by U69, 593
# [30] = biological target: Kappa-type opioid receptor (Cavia porcellus) (UniProt P41144); remark: listed apart in the source
# Description: Inhibition of [35S]GTP-gamma-S, binding in guines pig caudate stimulated by U50, 488 of Opioid receptor kappa 1
# [31] = biological target: Delta-type opioid receptor (Homo sapiens) (UniProt P41143); settings: Cavia porcellus; remark: listed apart in the source
# Description: Inhibition of [35S]GTP-gamma-S, binding in guines pig caudate stimulated by SNC-80 to Opioid receptor delta 1
# [32] = system: Rattus norvegicus; assay: Effective dose of compound required to produce maximal locomotor activity in cocaine-trained rat by oral administration; type: functional
# [33] = system: Rattus norvegicus; assay: Effective dose of compound required to produce maximal locomotor activity in rat by oral administration; type: functional
# [34] = system: Rattus norvegicus; assay: Time taken to produce maximal locomotor activity at 30 min period in rat by oral administration; type: functional
# [35] = system: Rattus norvegicus; assay: Maximal locomotor activity of compound compared as a percent of cocaine's effect in rat by oral administration; type: functional
# [36] = system: Rattus norvegicus; assay: Time during which activity returned to baseline level in rat by oral administration; type: functional
# T1 sequence (Q9WTR4 whole entry): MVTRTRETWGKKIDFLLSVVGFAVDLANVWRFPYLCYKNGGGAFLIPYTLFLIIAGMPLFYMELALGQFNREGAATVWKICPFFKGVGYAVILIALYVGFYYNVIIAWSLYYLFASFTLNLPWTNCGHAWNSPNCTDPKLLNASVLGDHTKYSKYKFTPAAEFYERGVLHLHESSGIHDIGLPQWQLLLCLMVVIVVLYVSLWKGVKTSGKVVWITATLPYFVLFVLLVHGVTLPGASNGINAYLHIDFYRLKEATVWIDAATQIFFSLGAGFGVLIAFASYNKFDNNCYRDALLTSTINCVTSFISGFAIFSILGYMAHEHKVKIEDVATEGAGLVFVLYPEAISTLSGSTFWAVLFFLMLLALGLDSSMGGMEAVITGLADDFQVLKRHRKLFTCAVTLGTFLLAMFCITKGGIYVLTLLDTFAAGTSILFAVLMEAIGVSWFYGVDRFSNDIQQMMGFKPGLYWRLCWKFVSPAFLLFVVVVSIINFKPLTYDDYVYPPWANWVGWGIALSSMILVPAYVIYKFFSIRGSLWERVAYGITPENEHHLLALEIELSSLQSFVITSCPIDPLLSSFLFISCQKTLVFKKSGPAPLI
smiles,measurement,setting,value
CCc1ccc([C@H]2C[C@H]3CCC(N3)C2C(=O)OC)cc1I (some centres undefined),IC50,[1],148 nM
same,IC50,[2],0.69 nM
same,Ki,[2],0.063 nM
same,Ki,[3],89 nM
same,IC50,[4],329 nM
COC(=O)C1C2CC[C@H](C[C@@H]1c1ccc(Cl)c(C)c1)N2C (some centres undefined),IC50,[5],1 nM
same,IC50,[1],36.2 nM
same,IC50,[2],10.5 nM
same,Ki,[2],0.95 nM
same,Time,[6],>4 h
same,ED50,[7],0.21 mg/kg
same,IC50,[8],0.8 nM
same,Ki,[3],2.8 nM
same,IC50,[9],0.6 nM
same,AD50,[10],1.5 mM/kg
same,IC50,[4],0.81 nM
same,AD50,[11],3.5 mM/kg
same,Peak time,[12],30 min
same,ED50,[13],2.2 mg/kg
same,Maximal locomotor activity (% of cocaine),[14],75%
C[C@H]1CN(C/C=C/c2ccccc2Cl)CC[C@@]1(C)c1cccc(O)c1,Ki,[15],1.12 nM
same,Ke,[16],0.567 nM
same,Ke,[17],0.026 nM
CCc1cc(Cl)c(OC)c(C(=O)NC[C@@H]2CCCN2CC)c1O,NC,[18],inactive
same,NC,[19],inactive
CC(C)[C@@H](CN1CC[C@@](C)(c2cccc(O)c2)[C@@H](C)C1)NC(=O)[C@H]1Cc2ccc(O)cc2CN1,Ke,[20],3.42 nM
same,Ke,[21],> 100 nM
same,Ke,[22],6 pM
Cc1ccc([C@H]2C[C@H]3CCC(C2c2ccccc2)N3C)cc1 (some centres undefined),IC50,[1],480 nM
same,IC50,[2],11000 nM
same,Ki,[2],1000 nM
same,Ki,[3],289 nM
same,IC50,[4],1.96 nM
CN1C2CC[C@@H]1C[C@H](c1ccc(Cl)cc1)C2C(=O)OCCc1ccc(N=S)cc1 (some centres undefined),Transporter deg rate const (k),[23],0.3 day⁻¹
same,T1/2,[24],50.4 h
same,IC50,[1],1400 nM
same,IC50,[2],7.1 nM
same,Ki,[2],0.65 nM
same,Transporter production rate (r),[25],106 fM/mg/day
same,Transporter production rate (r),[26],202 fM/mg/day
same,Ki,[3],843 nM
same,T1/2,[27],50.4 h
same,IC50,[4],5.3 nM
same,Transporter deg rate const (k),[28],0.34 day⁻¹
Oc1ccc2c3c1O[C@H]1c4[nH]c5c(c4C[C@@]4(O)[C@@H](C2)N(CC2CC2)CC[C@]314)C[C@@]1(O)[C@H]2Cc3ccc(O)c4c3[C@@]1(CCN2CC1CC1)[C@H]5O4,Ke,[29],0.07 nM
same,Ke,[30],0.038 nM
same,Ke,[20],15.8 nM
same,Ke,[17],16.8 nM
C[C@H]1C2CCCC1(c1cccc(O)c1)CCN2CCc1ccccc1 (some centres undefined),Ke,[16],1.34 nM
same,Ke,[17],0.338 nM
C[C@H]1CN(CC[C@H](O)C2CCCCC2)CC[C@@]1(C)c1cccc(O)c1,Ki,[15],0.32 nM
same,Ke,[16],0.33 nM
same,Ke,[17],0.021 nM
same,Ke,[31],0.312 nM
Cc1ccccc1/C=C/CN1CC[C@@](C)(c2cccc(O)c2)[C@@H](C)C1,Ki,[15],0.86 nM
same,Ke,[16],0.17 nM
same,Ke,[17],0.013 nM
CN1C2CCC1C(C(=O)Oc1ccccc1)C(c1ccc(Cl)cc1)C2 (centres undefined),Ki,[2],214 nM
same,Time,[6],>4 h
same,ED50,[7],2.28 mg/kg
same,Ki,[3],1780 nM
same,Peak time,[12],30 min
same,ED50,[13],0.93 mg/kg
same,Maximal locomotor activity (% of cocaine),[14],128%
C=C(C)c1ccc([C@H]2C[C@H]3CCC(N3)C2C(=O)OC)cc1 (some centres undefined),IC50,[1],144 nM
same,IC50,[2],0.6 nM
same,Ki,[2],0.055 nM
same,Ki,[3],87 nM
same,IC50,[4],23 nM
COC(=O)C1C2CC[C@H](C[C@@H]1c1ccc(C)cc1)N2 (some centres undefined),IC50,[1],9 nM
same,IC50,[2],500 nM
same,Ki,[2],46 nM
same,Ki,[3],5.4 nM
same,IC50,[4],33.6 nM
COC(=O)C1C2CC[C@H](C[C@H]1c1ccc(Br)cc1)N2C (some centres undefined),IC50,[2],10.6 nM
same,Ki,[2],0.96 nM
COC(=O)C1C2CC[C@H](C[C@@H]1c1cccc(I)c1)N2 (some centres undefined),IC50,[1],1600 nM
same,IC50,[2],39 nM
same,Ki,[2],3.6 nM
same,Ki,[3],964 nM
same,IC50,[4],26 nM
CN1C2CC[C@@H]1C[C@H](c1ccc(Cl)cc1)C2c1cc(-c2ccccc2)no1 (some centres undefined),Ki,[2],220 nM
same,Ki,[3],304 nM
COC(=O)C1C2CC[C@H](C[C@@H]1c1ccc(Cl)cc1)N2C (some centres undefined),Ki,[2],4.1 nM
Cc1ccc([C@H]2C[C@H]3CCC(C2C(=O)OC(C)C)N3C)cc1 (some centres undefined),IC50,[1],1930 nM
same,IC50,[2],6090 nM
same,Ki,[2],554 nM
same,ED50,[32],5.7 mg/kg
same,Time,[6],>4 h
same,ED50,[7],4.4 mg/kg
same,Ki,[3],1160 nM
same,ED50,[33],4.7 mg/kg
same,Peak time,[34],100 min
same,Cocaine,[35],116%
same,IC50,[4],6.45 nM
same,Peak time,[12],10 min
same,Time,[36],>4 h
same,ED50,[13],3.1 mg/kg
same,Maximal locomotor activity (% of cocaine),[14],103%
